Results reported in patent US12673961B2 (Agios Pharmaceuticals, Inc., priority 2022, dated 2026).

Target: T1, human PAH with the R408W mutation (Homo sapiens, UniProt P00439, R408W)
T1 construct: expressed in transfected cells
T1 sequence (P00439 1-452 R408W): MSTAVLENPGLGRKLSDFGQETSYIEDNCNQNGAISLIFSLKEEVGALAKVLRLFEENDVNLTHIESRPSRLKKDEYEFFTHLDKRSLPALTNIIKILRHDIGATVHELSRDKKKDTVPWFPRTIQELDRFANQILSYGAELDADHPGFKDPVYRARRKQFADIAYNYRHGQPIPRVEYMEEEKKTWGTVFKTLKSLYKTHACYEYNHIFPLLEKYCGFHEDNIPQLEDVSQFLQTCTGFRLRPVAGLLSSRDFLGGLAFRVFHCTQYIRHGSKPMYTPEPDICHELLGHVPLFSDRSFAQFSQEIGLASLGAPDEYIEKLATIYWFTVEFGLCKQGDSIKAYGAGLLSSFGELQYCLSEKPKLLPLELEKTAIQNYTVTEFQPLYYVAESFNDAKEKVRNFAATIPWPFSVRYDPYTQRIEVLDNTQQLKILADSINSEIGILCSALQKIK
Assay: Cell Based Phenylalanine Flux Assay;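 further: Ten-point dose curve from 2-fold serial dilutions, run in duplicate at 0.5% DMSO final, tracer step used 20 µM sepiapterin and 800 µM labeled phenylalanine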
Conditions: A375 cells expressing human R408W PAH; 24 hrs with compound, then sepiapterin and 13C9,15N-Phenylalanine for 4 hours; 13C-Tyrosine by LC-MS; average where tested multiple times; read-out: AC50

SMILES | AC50
CC(C)(C)c1nnc(C(=O)N2CCc3[nH]cnc3[C@H]2c2cc3cccc(C(F)F)n3n2)o1 [Example 1419, (S)-(5-(tert-butyl)-1,3,4-oxadiazol-2-yl)(4-(7-(difluoromethyl)pyrazolo [1,5-a]pyridin-2-yl)-6,7-dihydro-1H-imidazo[4,5-c]pyridin-5(4H)-yl)methanone] | 500 to 1000 nM
O=C(c1nnc(-c2ccccn2)o1)N1CCc2[nH]cnc2[C@@H]1c1cc2cccc(C(F)F)n2n1 [Example 1420, (R)-(4-(7-(difluoromethyl)pyrazolo[1,5-a]pyridin-2-yl)-6,7-dihydro-1H-imidazo [4,5-c]pyridin-5(4H)-yl)(5-(pyridin-2-yl)-1,3,4-oxadiazol-2-yl)methanone] | > 5000 nM
O=C(c1nnc(-c2cccnc2)o1)N1CCc2[nH]cnc2[C@@H]1c1cc2c(C(F)F)cccn2n1 [Example 1423, (R)-(4-(4-(difluoromethyl)pyrazolo[1,5-a]pyridin-2-yl)-6,7-dihydro-1H-imidazo [4,5-c]pyridin-5(4H)-yl)(5-(pyridin-3-yl)-1,3,4-oxadiazol-2-yl)methanone] | > 5000 nM
COc1ccc(-c2nnc(C(=O)N3CCc4[nH]cnc4[C@H]3c3cc4c(C(F)F)cccn4n3)o2)nc1 [Example 1424, (S)-(4-(4-(difluoromethyl)pyrazolo[1,5-a]pyridin-2-yl)-6,7-dihydro-1H-imidazo [4,5-c]pyridin-5(4H)-yl)(5-(5-methoxypyridin-2-yl)-1,3,4-oxadiazol-2-yl)methanone] | < 500 nM
Cc1cccc(-c2nnc(C(=O)N3CCc4[nH]cnc4[C@@H]3c3cc4c(C)cccn4n3)o2)n1 [Example 1428, (R)-(4-(4-methylpyrazolo [1,5-a]pyridin-2-yl)-6,7-dihydro-1H-imidazo[4,5-c]pyridin-5(4H)-yl)(5-(6-methylpyridin-2-yl)-1,3,4-oxadiazol-2-yl)methanone] | > 5000 nM
Cc1cccc(-c2nnc(C(=O)N3CCc4[nH]cnc4[C@H]3c3cc4c(C)cccn4n3)o2)n1 [Example 1429, (S)-(4-(4-methylpyrazolo [1,5-a]pyridin-2-yl)-6,7-dihydro-1H-imidazo[4,5-c]pyridin-5(4H)-yl)(5-(6-methylpyridin-2-yl)-1,3,4-oxadiazol-2-yl)methanone] | < 500 nM
Cc1cccc(-c2nnc(C(=O)N3CCc4[nH]cnc4[C@H]3c3cc4c(Cl)cccn4n3)o2)n1 [Example 1431, (S)-(4-(4-chloropyrazolo [1,5-a]pyridin-2-yl)-6,7-dihydro-1H-imidazo[4,5-c]pyridin-5(4H)-yl)(5-(6-methylpyridin-2-yl)-1,3,4-oxadiazol-2-yl)methanone] | < 500 nM
Cc1cccc(-c2nnc(C(=O)N3CCc4[nH]cnc4[C@H]3c3cc4c(C(F)(F)F)cccn4n3)o2)n1 [Example 1433, (S)-(5-(6-methylpyridin-2-yl)-1,3,4-oxadiazol-2-yl)(4-(4-(trifluoromethyl)pyrazolo [1,5-a]pyridin-2-yl)-6,7-dihydro-1H-imidazo[4,5-c]pyridin-5(4H)-yl)methanone] | < 500 nM
Cn1ccc(-c2ccc3c(C(=O)N4CCc5[nH]cnc5[C@H]4c4cc5ccccn5n4)cnn3c2)n1 [Example 1434, (S)-(6-(1-methyl-1H-pyrazol-3-yl)pyrazolo[1,5-a]pyridin-3-yl)(4-(pyrazolo [1,5-a]pyridin-2-yl)-6,7-dihydro-1H-imidazo[4,5-c]pyridin-5(4H)-yl)methanone] | 500 to 1000 nM
Cn1ccc(-c2ccc3c(C(=O)N4CCc5[nH]cnc5[C@@H]4c4cc5ccccn5n4)cnn3c2)n1 [Example 1435, (R)-(6-(1-methyl-1H-pyrazol-3-yl)pyrazolo[1,5-a]pyridin-3-yl)(4-(pyrazolo [1,5-a]pyridin-2-yl)-6,7-dihydro-1H-imidazo[4,5-c]pyridin-5(4H)-yl)methanone] | 1000 to 5000 nM
CC(C)(F)c1nnc(C(=O)N2CCc3[nH]cnc3[C@H]2c2cc3cccc(C(F)F)n3n2)o1 [Example 1436, (S)-(4-(7-(difluoromethyl)pyrazolo[1,5-a]pyridin-2-yl)-6,7-dihydro-1H-imidazo[4,5-c]pyridin-5(4H)-yl)(5-(2-fluoropropan-2-yl)-1,3,4-oxadiazol-2-yl)methanone] | 500 to 1000 nM
